In ChEMBL document CHEMBL3351580, “Pyrano-isochromanones as IL-6 inhibitors: synthesis, in vitro and in vivo antiarthritic activity” (J Med Chem, 2014):
Each block holds one compound with its values, some of them ahead of it. Calls of active or inactive are those of the source. The calls are words filed in the database; no cut-off is given here.

How the values were obtained:
Mus musculus [1] = assay: Antiarthritic activity in DBA/1J mouse collagen-induced arthritis model assessed as reduction in anticollagen antibody IgG1 level at 3 to 30 mg/kg, po administered once daily for 49 days starting from onset of disease and measured after 14 days of disease onset by ELISA method; format: functional, organism-based
Mus musculus [2] = assay: Antiinflammatory activity in BALB/c mouse assessed as serum IL6 level at 10 mg/kg, po qd for 5 days followed by LPS challenge 1 hr after last compound dose on fifth day and measured 4 hrs post LPS challenge by ELISA method (reference value: 410 +/- 95 pg/mL); format: functional
Mus musculus [3] = assay: Antiarthritic activity in BALB/c mouse assessed as reduction in SRBC-induced blood IL2 level administered orally once daily for 14 days measured 4 hrs post last dose by ELISA method; format: functional, organism-based
THP-1 [4] = assay: Inhibition of NFkappaB expression in human THP1 cells up to 100 uM by Western blotting method; format: functional, cell-based
THP-1 [5] = assay: Inhibition of LPS-induced TNFalpha production in human THP1 cells after 24 hrs; format: functional, cell-based; details: THP-1, 24 h
Mus musculus [6] = assay: Antiinflammatory activity in BALB/c mouse assessed as serum TNFalpha level at 100 mg/kg, po qd for 5 days followed by LPS challenge 1 hr after last compound dose on fifth day and measured 4 hrs post LPS challenge by ELISA method (reference value: 717 +/- 218 pg/mL); format: functional
Mus musculus [7] = assay: Antiarthritic activity in DBA/1J mouse collagen-induced arthritis model assessed as reduction in anticollagen antibody IgG1 level at 3 to 30 mg/kg, po administered once daily for 49 days starting from onset of disease and measured after 49 days of disease onset by ELISA method; format: functional, organism-based
THP-1 [8] = assay: Cytotoxicity against human THP1 cells after 24 hrs by MTT assay; format: cell-based; details: THP-1, 24 h
Mus musculus [9] = assay: Antiarthritic activity in DBA/1J mouse collagen-induced arthritis model assessed as reduction in anticollagen antibody IgG2a level at 3 to 30 mg/kg, po administered once daily for 49 days starting from onset of disease and measured after 14 days of disease onset by ELISA method; format: functional, organism-based
Mus musculus [10] = assay: Antiinflammatory activity in BALB/c mouse assessed as serum IL6 level at 100 mg/kg, po qd for 5 days followed by LPS challenge 1 hr after last compound dose on fifth day and measured 4 hrs post LPS challenge by ELISA method (reference value: 410 +/- 95 pg/mL); format: functional
Mus musculus [11] = assay: Antiarthritic activity in DBA/1J mouse collagen-induced arthritis model assessed as reduction in paw swelling at 30 mg/kg, po administered once daily for 49 days starting from onset of disease; format: functional; details: 1176 h
Mus musculus [12] = assay: Antiinflammatory activity in BALB/c mouse assessed as serum nitric oxide level at 100 mg/kg, po qd for 5 days followed by LPS challenge 1 hr after last compound dose on fifth day and measured 4 hrs post LPS challenge by Griess assay (reference value: 6.95 +/- 1.81 uM); format: functional
THP-1 [13] = assay: Inhibition of LPS-induced nitric oxide production in human THP1 cells at 10 uM after 24 hrs by Griess assay; format: functional; details: THP-1, 24 h
Mus musculus [14] = assay: Antiinflammatory activity in BALB/c mouse assessed as serum nitric oxide level at 10 mg/kg, po qd for 5 days followed by LPS challenge 1 hr after last compound dose on fifth day and measured 4 hrs post LPS challenge by Griess assay (reference value: 6.95 +/- 1.81 uM); format: functional
[15] = Solubility in water; format: physicochemical
THP-1 [16] = assay: Inhibition of NFkappaB p65/rel expression in human THP1 cells at 20 to 100 uM by Western blotting method; format: functional, cell-based
THP-1 [17] = assay: Cytotoxicity against human THP1 cells after 48 hrs by MTT assay; format: cell-based; details: THP-1, 48 h
Mus musculus [18] = assay: Antiarthritic activity in BALB/c mouse assessed as reduction in SRBC-induced blood IL4 level administered orally once daily for 14 days measured 4 hrs post last dose by ELISA method; format: functional, organism-based
Mus musculus [19] = assay: Antiarthritic activity in BALB/c mouse assessed as reduction in SRBC-induced blood IFNgamma level administered orally once daily for 14 days measured 4 hrs post last dose by ELISA method; format: functional, organism-based
[20] = Therapeutic index, ratio of cytotoxic IC50 for human THP1 cells by MTT assay to IC50 for inhibition of LPS-induced IL6 production in human THP1 cells; format: cell-based, THP-1; details: read-out: Ratio IC50
[21] = Inhibition of concanavalin A-induced cell proliferation of T cells (unknown origin) at 10 uM after 72 hrs by MTT assay; format: functional
THP-1 [22] = assay: Inhibition of LPS-induced IL6 production in human THP1 cells after 24 hrs; format: functional, cell-based; details: THP-1, 24 h
Mus musculus [23] = assay: Antiarthritic activity in DBA/1J mouse collagen-induced arthritis model assessed as reduction in TNFalpha level at 3 to 30 mg/kg, po administered once daily for 49 days starting from onset of disease and measured after 3 to 49 days of disease onset by ELISA method; format: functional, organism-based
Mus musculus [24] = assay: Antiinflammatory activity in BALB/c mouse assessed as serum TNFalpha level at 10 mg/kg, po qd for 5 days followed by LPS challenge 1 hr after last compound dose on fifth day and measured 4 hrs post LPS challenge by ELISA method (reference value: 717 +/- 218 pg/mL); format: functional
THP-1 [25] = assay: Inhibition of LPS-induced IL-1beta production in human THP1 cells at 10 uM after 24 hrs; format: functional; details: THP-1, 24 h
[26] = biological target: Inhibitor of NF-kappa-B kinase (IKK) (Homo sapiens) (UniProt O14920+O15111+Q9Y6K9); assay: Inhibition of IKKbeta expression in human THP1 cells at 20 to 100 uM by Western blotting method; format: functional, cell-based; details: THP-1
Mus musculus [27] = assay: Antiarthritic activity in DBA/1J mouse collagen-induced arthritis model assessed as reduction in IL-1beta level at 3 to 30 mg/kg, po administered once daily for 49 days starting from onset of disease and measured after 3 to 49 days of disease onset by ELISA method; format: functional, organism-based
Mus musculus [28] = assay: Antiarthritic activity in DBA/1J mouse collagen-induced arthritis model assessed as reduction in IL6 level at 3 to 30 mg/kg, po administered once daily for 49 days starting from onset of disease and measured after 3 to 49 days of disease onset by ELISA method; format: functional, organism-based
Mus musculus [29] = assay: Immunosuppressive activity in BALB/c mouse assessed as reduction in SRBC-induced humoral immunity by measuring IgM level at 3 to 30 mg/kg, po administered once daily for 14 days measured 4 hrs post last dose; format: functional, organism-based
Mus musculus [30] = assay: Antiarthritic activity in DBA/1J mouse collagen-induced arthritis model assessed as reduction in anticollagen antibody IgG2a level at 3 to 30 mg/kg, po administered once daily for 49 days starting from onset of disease and measured after 49 days of disease onset by ELISA method; format: functional, organism-based
Mus musculus [31] = assay: Immunosuppressive activity in BALB/c mouse assessed as reduction in SRBC-induced DTH response at 3 to 30 mg/kg, po administered once daily for 14 days measured 4 hrs post last dose; format: functional, organism-based
Mus musculus [32] = assay: Immunosuppressive activity in BALB/c mouse assessed as reduction in SRBC-induced humoral immunity by measuring IgG level at 3 to 30 mg/kg, po administered once daily for 14 days measured 4 hrs post last dose; format: functional, organism-based
B-cell = assay: Inhibition of LPS-induced cell proliferation of B cells (unknown origin) at 10 uM after 72 hrs by MTT assay; format: functional
[33] = Solubility in SIF solution; format: physicochemical
[34] = Solubility in PBS buffer; format: physicochemical
[35] = Solubility in SGF solution; format: physicochemical

IC50 (THP-1 [5]): > 30 µM
solubility [15]: > 1500 µg/mL
IC50 (THP-1 [22]): 1.63 µM
SMILES: COc1c(O)c(CN(C)CC(=O)O)c2c(c1O)[C@@H]1O[C@H](CO)[C@@H](O)[C@H](O)[C@H]1OC2=O
inhibition at 10 µM [21]: 4%
inhibition at 10 µM (B-cell): 17%

IC50 (THP-1 [5]): > 30 µM
solubility [15]: > 1500 µg/mL
IC50 (THP-1 [22]): 0.371 µM
SMILES: COc1c(O)c(CN2CCC(Cc3ccccc3)CC2)c2c(c1O)[C@@H]1O[C@H](CO)[C@@H](O)[C@H](O)[C@H]1OC2=O
inhibition at 10 µM [21]: 16%
inhibition at 10 µM (B-cell): 18.2%

IC50 (THP-1 [5]): > 30 µM
solubility [15]: > 1500 µg/mL
IC50 (THP-1 [22]): 0.177 µM
SMILES: CCOC(=O)N1CCN(Cc2c(O)c(OC)c(O)c3c2C(=O)O[C@@H]2[C@@H](O)[C@H](O)[C@@H](CO)O[C@@H]32)CC1
inhibition at 10 µM [21]: 27%
inhibition at 10 µM (B-cell): 9%

IC50 (THP-1 [5]): > 30 µM
solubility [15]: > 1500 µg/mL
solubility [33]: > 1500 µg/mL
IC50 (THP-1 [22]): 0.141 µM
solubility [34]: > 1500 µg/mL
inhibition [26]: Active
solubility [35]: > 1500 µg/mL
SMILES: COc1c(O)c(CN2CCN(C)CC2)c2c(c1O)[C@@H]1O[C@H](CO)[C@@H](O)[C@H](O)[C@H]1OC2=O
inhibition (Mus musculus [1]): Active
Activity (Mus musculus [2]): 282 pg/mL
inhibition (Mus musculus [3]): Dose-dependent effect
Activity (Mus musculus [6]): 398 pg/mL
inhibition (Mus musculus [7]): Active
IC50 (THP-1 [8]): 107 µM
inhibition (Mus musculus [9]): Active
Activity (Mus musculus [10]): 58 pg/mL
inhibition in vivo at 30 mg/kg (Mus musculus [11]): 28%
Activity (Mus musculus [12]): 1.24 µM
inhibition at 10 µM (THP-1 [13]): 41%
Activity (Mus musculus [14]): 2.87 µM
IC50 (THP-1 [17]): 68 µM
inhibition (Mus musculus [18]): Dose-dependent effect
inhibition (Mus musculus [19]): Dose-dependent effect
selectivity ratio [20]: > 400
inhibition at 10 µM [21]: 36.9%
inhibition (Mus musculus [23]): Active
Activity (Mus musculus [24]): 672 pg/mL
inhibition at 10 µM (THP-1 [25]): 41%
inhibition (Mus musculus [27]): Active
inhibition (Mus musculus [28]): Active
inhibition (Mus musculus [29]): Active
inhibition (Mus musculus [30]): Active
inhibition (Mus musculus [31]): Active
inhibition (Mus musculus [32]): Active
inhibition at 10 µM (B-cell): 49%

Further lines, the compound ahead of its results:

SMILES: COc1c(O)cc2c(c1O)[C@@H]1O[C@H](CO)[C@@H](O)[C@H](O)[C@H]1OC2=O [BERGENIN]
inhibition (Mus musculus [1]): Active
Activity (Mus musculus [2]): 282 pg/mL
inhibition (Mus musculus [3]): Dose-dependent effect
inhibition (THP-1 [4]): inactive
IC50 (THP-1 [5]): 12.5 µM
Activity (Mus musculus [6]): 509 pg/mL
inhibition (Mus musculus [7]): Active
IC50 (THP-1 [8]): 130 µM
inhibition (Mus musculus [9]): Active
Activity (Mus musculus [10]): 55 pg/mL
inhibition in vivo at 30 mg/kg (Mus musculus [11]): 32%
Activity (Mus musculus [12]): 3.29 µM
inhibition at 10 µM (THP-1 [13]): 39%
Activity (Mus musculus [14]): 2.62 µM
solubility [15]: > 1500 µg/mL
inhibition (THP-1 [16]): Active
IC50 (THP-1 [17]): 84 µM
inhibition (Mus musculus [18]): Dose-dependent effect
inhibition (Mus musculus [19]): Dose-dependent effect
selectivity ratio [20]: > 400
inhibition at 10 µM [21]: 54.8%
IC50 (THP-1 [22]): 0.208 µM
inhibition (Mus musculus [23]): Active
Activity (Mus musculus [24]): 667 pg/mL
inhibition at 10 µM (THP-1 [25]): 24%
inhibition [26]: Active
inhibition (Mus musculus [27]): Active
inhibition (Mus musculus [28]): Active
inhibition (Mus musculus [29]): Active
inhibition (Mus musculus [30]): Active
inhibition (Mus musculus [31]): Active
inhibition (Mus musculus [32]): Active
inhibition at 10 µM (B-cell): 51.2%

SMILES: CCN1CCN(Cc2c(O)c(OC)c(O)c3c2C(=O)O[C@@H]2[C@@H](O)[C@H](O)[C@@H](CO)O[C@@H]32)CC1
IC50 (THP-1 [5]): > 30 µM
solubility [15]: > 1500 µg/mL
inhibition at 10 µM [21]: 34.2%
IC50 (THP-1 [22]): 0.195 µM
inhibition at 10 µM (B-cell): 44.2%

SMILES: COc1c(O)c(CN2CCOCC2)c2c(c1O)[C@@H]1O[C@H](CO)[C@@H](O)[C@H](O)[C@H]1OC2=O
IC50 (THP-1 [5]): 16 µM
solubility [15]: > 1500 µg/mL
inhibition at 10 µM [21]: 37.5%
IC50 (THP-1 [22]): 1.86 µM
inhibition at 10 µM (B-cell): 31.6%

SMILES: CCCN(CCC)Cc1c(O)c(OC)c(O)c2c1C(=O)O[C@@H]1[C@@H](O)[C@H](O)[C@@H](CO)O[C@@H]21
IC50 (THP-1 [5]): > 30 µM
solubility [15]: > 1500 µg/mL
inhibition at 10 µM [21]: 10.3%
IC50 (THP-1 [22]): 0.361 µM
inhibition at 10 µM (B-cell): 2.8%
